Source: patent US20250289785A1, “INDOLE DERIVATIVE, METHOD FOR PREPARING SAME, AND USE THEREOF” (MITOIMMUNE THERAPEUTICS INC., priority 2021, published 2025)

What was measured:
PC-12 cells = experiment: Cell death protective effect in adrenal cells against Erastin, glutamate and RSL3 (LDH); format: cell-based, rat; conditions: 24 h
Protocol: In order to identify the protective effect on adrenal cells, PC-12 cells were divided into 96-well plates by 1×10^4 and cultured for 18 to 24 hours. […] Erastin, glutamate, and RSL3 were treated to have final concentrations of 1 μM, 10 mM, and 0.3 μM, respectively, and cultured for 24 hours. In order to identify the protective effect of each compound, the degree of LDH extracellular secretion was measured using cytotoxicity LDH assay kit [Dojindo; CK12]. Briefly, at the time when the treatment of the cells with Erastin, glutamate, and RSL3 for 24 hours is completed, the supernatants containing the cells are taken by 70 μL and transferred to a new 96-well plate. The assay buffer included in the kit is added in an amount of 70 μL/well (the same amount as the sample) thereto, and then the plate is wrapped with a foil and the reaction is performed at room temperature for 15 minutes.

NIH/3T3 cells = experiment: Cell death protective effect in fibroblasts against Erastin, glutamate and RSL3 (LDH); format: cell-based, mouse; conditions: 24 h
Protocol: (§1) In order to identify the protective effect on fibroblasts, NIH/3T3 cells were divided into 96-well plates by 8×10^3 and cultured for 18 to 24 hours. The compounds of Examples were diluted to final concentrations of 0.1 and 1 μM, treated in each well, and incubated for 15 to 20 minutes. Erastin, glutamate, and RSL3 were treated to have final concentrations of 3 μM, 30 mM, and 3 μM, respectively, and cultured for 24 hours. In order to identify the protective effect of each compound, the degree of LDH extracellular secretion was measured using cytotoxicity LDH assay kit [Dojindo; CK12]. Briefly, at the time when the treatment of the cells with Erastin, glutamate, and RSL3 for 24 hours is completed, the supernatants containing the cells are taken by 70 μL and transferred to a new 96-well plate. The assay buffer included in the kit is added in an amount of 70 μL/well (the same amount as the sample) thereto, and then the plate is wrapped with a foil and the reaction is performed at room temperature for 15 minutes.

MLE-12 cells = experiment: Cell death protective effect in lung epithelial cells against RSL3 (LDH); format: cell-based, rat; conditions: MLE-12, RSL3, 1 μM, 24 h
Protocol: In order to identify the protective effect on lung epithelial cells, MLE-12 cells were divided into 96-well plates by 5×10^3 and cultured for 18 to 24 hours. The compounds of Examples were diluted to final concentrations of 0.03 and 0. μM, treated in each well, and incubated for 20 minutes. RSL3 was treated to have final concentrations of 1. μM, respectively, and cultured for 24 hours. In order to identify the protective effect of each compound, the degree of LDH extracellular secretion was measured using cytotoxicity LDH assay kit [Dojindo; CK12]. Briefly, at the time when the treatment of the cells with RSL3 for 24 hours is completed, the supernatants containing the cells are taken by 70 μL and transferred to a new 96-well plate. The assay buffer included in the kit is added in an amount of 70 μL/well (the same amount as the sample) thereto, and then the plate is wrapped with a foil and the reaction is performed at room temperature for 15 minutes.

H9C2 cells = experiment: Cell death protective effect in cardiac myocytes against Erastin, glutamate and RSL3 (LDH); format: cell-based, white mouse; conditions: 24 h
Protocol: as §1, with “on cardiac cells, H9C2” for “on fibroblasts, NIH/3T3”, “by 1×10^4” for “by 8×10^3”, “and 1.0” for “and 1”, “of 1” for “of 3”, “μM, 25” for “μM, 30”, “and 0.5” for “and 3”

ARPE-19 cells = experiment: Cell death protective effect in retinal epithelial cells against Erastin and RSL3 (LDH); format: cell-based, human; conditions: 24 h
Protocol: In order to identify the protective effect on retinal epithelial cells, ARPE-19 cells were divided into 96-well plates by 1×10^4 and cultured for 18 to 24 hours. The compounds of Examples were diluted to final concentrations of 0.03 and 0.3 μM, treated in each well, and incubated for 20 minutes. Erastin, and RSL3 were treated to have final concentrations of 10 μM, and 0.3 μM, respectively, and cultured for 24 hours. In order to identify the protective effect of each compound, the degree of LDH extracellular secretion was measured using cytotoxicity LDH assay kit [Dojindo; CK12]. Briefly, at the time when the treatment of the cells with Erastin, and RSL3 for 24 hours is completed, the supernatants containing the cells are taken by 70 μL and transferred to a new 96-well plate. The assay buffer included in the kit is added in an amount of 70 μL/well (the same amount as the sample) thereto, and then the plate is wrapped with a foil and the reaction is performed at room temperature for 15 minutes.

[1] = PC-12, Erastin, 1 μM, compound 0.1 μM
[2] = PC-12, Erastin, 1 μM, compound 1.0 μM
[3] = PC-12, Glutamate, 10 mM, compound 0.1 μM
[4] = PC-12, Glutamate, 10 mM, compound 1.0 μM
[5] = PC-12, RSL3, 0.3 μM, compound 0.1 μM
[6] = PC-12, RSL3, 0.3 μM, compound 1.0 μM
[7] = NIH/3T3, Erastin, 3 μM, compound 0.1 μM
[8] = NIH/3T3, Erastin, 3 μM, compound 1.0 μM
[9] = NIH/3T3, Glutamate, 30 mM, compound 0.1 μM
[10] = NIH/3T3, Glutamate, 30 mM, compound 1.0 μM
[11] = NIH/3T3, RSL3, 3 μM, compound 0.1 μM
[12] = NIH/3T3, RSL3, 3 μM, compound 1.0 μM
[13] = H9C2, Erastin, 1 μM, compound 0.1 μM
[14] = H9C2, Erastin, 1 μM, compound 1.0 μM
[15] = H9C2, Glutamate, 25 mM, compound 0.1 μM
[16] = H9C2, Glutamate, 25 mM, compound 1.0 μM
[17] = H9C2, RSL3, 0.5 μM, compound 0.1 μM
[18] = H9C2, RSL3, 0.5 μM, compound 1.0 μM
[19] = ARPE-19, Erastin, 10 μM, compound 0.03 μM
[20] = ARPE-19, Erastin, 10 μM, compound 0.3 μM
[21] = ARPE-19, RSL3, 0.3 μM, compound 0.03 μM (first RSL3 column)
[22] = ARPE-19, RSL3, 0.3 μM, compound 0.03 μM (second RSL3 column)

SMILES	inhibition (%) (PC-12 cells; [1])	inhibition (%) (PC-12 cells; [2])	inhibition (%) (PC-12 cells; [3])	inhibition (%) (PC-12 cells; [4])	inhibition (%) (PC-12 cells; [5])	inhibition (%) (PC-12 cells; [6])	inhibition (%) (NIH/3T3 cells; [7])	inhibition (%) (NIH/3T3 cells; [8])	inhibition (%) (NIH/3T3 cells; [9])	inhibition (%) (NIH/3T3 cells; [10])	inhibition (%) (NIH/3T3 cells; [11])	inhibition (%) (NIH/3T3 cells; [12])	inhibition (%) (MLE-12 cells; compound 0.03 μM)	inhibition (%) (MLE-12 cells; compound 0.3 μM)	inhibition (%) (H9C2 cells; [13])	inhibition (%) (H9C2 cells; [14])	inhibition (%) (H9C2 cells; [15])	inhibition (%) (H9C2 cells; [16])	inhibition (%) (H9C2 cells; [17])	inhibition (%) (H9C2 cells; [18])	other results
COCc1cc(NC2CCOCC2)c2[nH]c(-c3ccccc3)cc2c1 [Example 1, 5-(methoxymethyl)-2-phenyl-N-tetrahydropyran-4-yl-1H-indol-7-amine]	100	100	77	100	100	100	99	99	98	97	98	99	88	100	100	100	97	98	100	100	inhibition (%) (ARPE-19 cells; [19]): 100%; inhibition (%) (ARPE-19 cells; [20]): 100%; inhibition (%) (ARPE-19 cells; [21]): 100%; inhibition (%) (ARPE-19 cells; [22]): 100%
COCc1cc(NC2CCCC2)c2[nH]c(-c3ccccc3)cc2c1 [Example 2, N-cyclopentyl-5-(methoxymethyl)-2-phenyl-1H-indol-7-amine]	100	100	96	100	100	100	99	100	98	99	100	100	84	9	100	100	97	98	100	100	inhibition (%) (ARPE-19 cells; [19]): 100%; inhibition (%) (ARPE-19 cells; [20]): 100%; inhibition (%) (ARPE-19 cells; [21]): 100%; inhibition (%) (ARPE-19 cells; [22]): 100%
COCc1cc(NC2CC[S+]([O-])CC2)c2[nH]c(-c3ccccc3)cc2c1 (stereo not drawn) [Example 14, 5-(methoxymethyl)-N-(1-oxothian-4-yl)-2-phenyl-1H-indol-7-amine]	100	100	45	100	100	100	38	100	97	96	100	100	50	100	100	100	97	99	100	100	inhibition (%) (ARPE-19 cells; [19]): 100%; inhibition (%) (ARPE-19 cells; [20]): 98%; inhibition (%) (ARPE-19 cells; [21]): 82%; inhibition (%) (ARPE-19 cells; [22]): 98%
CCOCc1cc(NC2CCCC2)c2[nH]c(-c3ccccc3)cc2c1 [Example 19, N-cyclopentyl-5-(ethoxymethyl)-2-phenyl-1H-indol-7-amine]	100	100	100	100	100	100	100	100	95	97	100	100	93	100	100	100	99	100	100	100	inhibition (%) (ARPE-19 cells; [19]): 99%; inhibition (%) (ARPE-19 cells; [20]): 100%; inhibition (%) (ARPE-19 cells; [21]): 100%; inhibition (%) (ARPE-19 cells; [22]): 100%
CCOCc1cc(NC2CCOCC2)c2c(c1)c(COC)c(-c1ccccc1)n2C [Example 29, 5-(ethoxymethyl)-3-(methoxymethyl)-1-methyl-2-phenyl-N-(tetrahydro-2H-pyran-4-yl)-1H-indol-7-amine]	0	100	22	71	26	100	0	99	98	97	100	100	0	95	1	100	6	95	10	100	inhibition (%) (ARPE-19 cells; [19]): 22%; inhibition (%) (ARPE-19 cells; [20]): 100%; inhibition (%) (ARPE-19 cells; [21]): 18%; inhibition (%) (ARPE-19 cells; [22]): 100%
